Measurements as given in patent US20110160252A1, “PHARMACEUTICAL COMPOSITIONS FOR TREATMENT OR PREVENTION OF HBV INFECTION” (priority 2008, published 2011).
Where two headings read alike, the source gives them in different places.

Experiments:
[1] = test system: HBV (genotype C_AT; wild-type strain); assay: Virus titer in chimeric mice having human liver infected with genotype C_AT HBV (Example 4); assay type: in vivo, Hepatitis B virus; conditions: second week, formula (III) 5 mg/kg iv daily, PEG-IFN 30 μg/kg sc, ETV 0.02 mg/kg oral daily (FIG. 4)
From the text: (§1) Next, serum HBV was purified by the same method as described in Example 1, and HBV was quantified by measuring HBV-DNA using real-time PCR method. The sequences of primers HBSF2: 5′-CTTCATCCTGCTGCTATGCCT-3′[nt 406-426] (SEQ ID NO: 4) and HBSR2: 5′-AAAGCCCAGGATGATGGGAT-3′[nt 646-627] (SEQ ID NO: 5), and the sequence of TaqMan probe HBSP2 (nt 461-488) (5′-ATGTTGCCCGTTTGTCCTCTAATTCCA-3′ (SEQ ID NO: 6)) were the same as those described in the reference (Abe A, Inoue K, Tanaka T, Kato J, Kajiyama N, Kawaguchi R, Tanaka S, et al. Quantitation of hepatitis B virus genomic DNA by real-time detection PCR. J Clin Microbiol (1999) 37: 2899-2903).
(§2) The same test as described in Example 3 was carried out using chimeric mice (purchased from PhoenixBio Co., Ltd.) having human liver infected with HBV (genotype C_AT; wild-type strain). The compound represented by formula (III) was administered at 5 mg/kg (intravenous injection every day), while PEG-IFN was administered at 30 μg/kg (subcutaneous injection). Entecavir (ETV) was administered at 0.02 mg/kg (oral administration every day).

[2] = test system: genotype C HBV (L180M+S202G+M204V; ETV-resistant strain); assay: Virus titer in chimeric mice having human liver infected with ETV-resistant genotype C HBV (Example 5); assay type: in vivo, Hepatitis B virus; conditions: formula (III) 5 mg/kg iv daily, PEG-IFN 30 μg/kg sc, ETV 0.02 mg/kg oral daily (FIG. 5)
From the text: as §1
as §2, with “with genotype C” for “with”, “(L180M+S202G+M204V; ETV-resistant” for “(genotype C_AT; wild-type”

[3] = test system: HBV (genotype C_AT; wild-type strain); assay: Anti-HBV effect on HBV-infected Huh-7 cells, HBV-DNA in supernatant by real-time PCR (wild-type strain); assay type: cell-based; conditions: Hepatitis B virus
Procedure: The present inventors assessed the anti-HBV effect of the compound represented by formula (III) on Huh-7 cells infected with HBV (genotype C_AT; wild-type strain).
(§3) On the day before HBV infection, about 100,000 Huh-7 cells were plated in 12-well plates (FALCON, 353043) using culture medium DMEM (SIGMA, D6429).
On the day of infection, 50 μl of a homogenous mixture of 0.5 μg of HBV-DNA (described in “Sugiyama M, et al. HEPATOLOGY, Vol. 44: 915-924, 2006”), 1.5 μl of FUGENE6 (Roche Diagnostics; 11 814 443 001), 5 μl of SEAP, and 43 μl of OPTIMEM (Invitrogen; 31985) was added to the Huh-7 cells in each well. Then, the compound represented by formula (III) was added at a final concentration of 0, 3, 10, or 30 μM.
The cells were cultured at 37° C. under 5% CO2 for three days, and then culture supernatant was collected from each well. The supernatant was treated with deoxyribonuclease (DNase) to remove free DNA. […]
(§4) HBV was quantified by measuring HBV-DNA using real-time PCR (Device used: Applied Biosystems, 4318157). […]
(§5) (SEQ ID NO: 2); and HBVSP2 has the sequence of: FAM-[…]-TAMRA (SEQ ID NO: 3)). […] HBV-DNA copy numbers were determined from the obtained fluorescent signals.

[4] = test system: HBV strain A, L180M+M204V (highly Lamivudine-resistant strain); assay: HBV propagation suppression in Huh-7 cells, strain A (highly Lamivudine-resistant); assay type: cell-based; conditions: Hepatitis B virus, Huh-7, read-out: 50% propagation suppression
Procedure: (§6) FIG. 1B is a graph showing the effect of an agent on Huh-7 cells infected with various HBV strains. • A: highly Lamivudine-resistant strain, 50% propagation suppression=3.4 μM; • B: Entecavir-resistant strain, 50% propagation suppression=3.7 μM; • C: Lamivudine-resistant strain, 50% propagation suppression=3.6 μM; • Wild: wild-type strain, 50% propagation suppression=3.2
as §3
(§7) On the day of infection, 50 μl of a homogenous mixture of 0.5 μg of HBV-DNA (described in “Sugiyama M, et al. HEPATOLOGY, Vol. 44: 915-924, 2006”), 1.5 μl of FUGENE6 (Roche Diagnostics; 11 814 443 001), 5 μl of SEAP, and 43 μl of OPTIMEM (Invitrogen; 31985) was added to the Huh-7 cells in each well. […]
as §4, §5
(§8) Furthermore, the effect of suppressing HBV propagation was assessed by the same method using Lamivudine- and Entecavir-resistant strains (A, L180M+M204V; B, L180M+M204V+T184L; C, M204V (YVDD)) as well as wild-type HBV strain (Wild).

[5] = test system: HBV strain B, L180M+M204V+T184L (Entecavir-resistant strain); assay: HBV propagation suppression in Huh-7 cells, strain B (Entecavir-resistant); assay type: cell-based; conditions: Hepatitis B virus, Huh-7, read-out: 50% propagation suppression
Procedure: as §6, §3, §7, §4, §5, §8

[6] = test system: HBV strain C, M204V (YVDD) (Lamivudine-resistant strain); assay: HBV propagation suppression in Huh-7 cells, strain C (Lamivudine-resistant); assay type: cell-based; conditions: Hepatitis B virus, Huh-7, read-out: 50% propagation suppression
Procedure: as §6, §3, §7, §4, §5, §8

SMILES | mean decrease of virus titer [1] [Log] | viral decrease [2] [Log] | IC50 ([3]; 72 h, Huh-7 cells, genotype C_AT wild-type HBV, three days culture, HBV-DNA in supernatant (FIG. 1A), read-out: 50%-inhibition concentration (IC50)) [µM] | IC50 ([3]; Huh-7, read-out: 50% propagation suppression) [µM] | IC50 [4] [µM] | IC50 [5] [µM] | IC50 [6] [µM]
C=C1[C@H](CO)[C@@H](O)C[C@@H]1n1cnc2c(=O)[nH]c(N)nc21 [ETV, Entecavir] | 1.4 | 0.3 |  |  |  |  | 
CC#CCOc1ccc(C[C@H](NC(=O)[C@@H](/C=C/CCCCCCC(=O)CCCCCCC)[C@@](O)(CC(=O)O)C(=O)O)C(=O)O)cc1 [compound represented by formula (III)] |  |  | ~3 | 3.2 | 3.4 | 3.7 | 3.6
